We go through 7 compounds from patent publication US4438117A, “2-Substituted thio-4,5-diarylpyrimidines” (E. I. Du Pont de Nemours and Company, priority 1980, dated 1984).

Broadly, the ED50 is the dose at which the effect has come halfway, by size or by number of responders.

Assay [1] relates to Adjuvant-Induced Arthritis in Rats. In words: Established adjuvant-induced arthritis in rats (antiinflammatory activity, paw volume). The format is in vivo, Charles River Lewis male rats. The note with it: oral by gavage, that day and 6 following days; for AA % Reduction @ 27 mg/kg: % reduction in paw volume at 27 mg/kg, * p <0.05 (Examples 2, 3, 6), ** p >0.1 (Example 9) compared to control. Here is the method:
A procedure for detecting and comparing the antiinflammatory activity of compounds in this series and standard drugs for which there is a good correlation with human efficacy is the adjuvant-induced arthritis test in rats.
Charles River Lewis male rats (130-150 grams) are injected subcutaneously in plantar area of the right hind paw with 0.1 ml of adjuvant (Difco heat-killed, lyophilized Mycobacterium butyricum suspended in mineral oil 5 mg/ml). 20 Non-arthritic controls are injected with mineral oil. The animals are held for 2 weeks to allow development of arthritis. Paw volumes (uninjected, left hind paw) are measured and the adjuvant injected rats are culled and distributed to treatment groups of 10 of equal disease severity. Non-arthritic controls are distributed to 2 groups of 10. The rats are given oral doses of compound or PVA-Acacia (Polyvinyl Alcohol 1%, Gum Acacia, U.S.P. 5%, Methylparaben 0.5%) (10 ml/kg) by gavage on that day and on the 6 following days. One day after the last dose the paw volumes (uninjected, left hind paw) are measured using a Ugo Basile Volume Differential Meter Model 7101. [formula]
Dose-response regression lines of the % decrease are plotted on semi-log paper by visual fit and the ED50% decrease from control paw volume is determined by inspection. Alternatively, % reduction in paw volume was measured at a dose of 27 mg/kg.

For another assay, the system named is phenylquinone writhing. The assay can be described thus: Phenylquinone writhing test (analgesic activity). The format is in vivo, female white mice. The conditions noted are these: Mus musculus; oral in 1% methylcellulose, fasted mice, observed from 30 minutes after dosing for 10 minutes; effective analgesic dose for 50% of the mice; read-out: PQW ED50. Here is the method:
A procedure for detecting and comparing the analgesic activity of compounds in this series and standard drugs for which there is a good correlation with human efficacy is the phenylquinone writhing test.
The phenylquinone writhing test, modified from Siegmund, et al., Proc. Soc. Exp. Biol. Med. 95, 729 (1957), was employed. A test compound suspended in 1% methylcellulose was given orally to fasted (17-21 hours) female white mice, 5-20 animals per double blind test. Aqueous (0.01% phenyl-p-benzoquinone) phenylquinone was injected intraperitoneally 24 minutes later using 0.20 ml per mouse. […] The effective analgesic dose for 50% of the mice (ED50) was calculated by the moving average method of Thompson, W. R., Bact. Rev., 11, 115-145 (1947).
For orientation: An intraperitoneal irritant provokes the stretching counted in writhing tests.

Take `COc1ccc(-c2cnc(SC(F)(F)C(F)F)nc2-c2ccc(OC)cc2)cc1` [Example 1, 2-(1,1,2,2-Tetrafluoroethylthio)-4,5-bis(4-methoxyphenyl)pyrimidine]: the ED50 in assay [1] (Rattus norvegicus, ED50% decrease from control paw volume, uninjected left hind paw, read-out: AA ED50) is 25 mg/kg; in the assay on phenylquinone writhing, > 108 mg/kg.
In the case of `COc1ccc(-c2nc(SC)ncc2-c2ccc(Cl)cc2)cc1` [Example 3, 2-Methylthio-4-(4-methoxyphenyl)-5-(4-chlorophenyl)-pyrimidine], in assay [1], the “AA % Reduction @ 27 mg/kg” value turned out to be 39%. For the same compound, the ED50 in the assay with phenylquinone writhing was > 108 mg/kg.
In the same order, the values of `COc1ccc(-c2cnc(SC(F)(F)F)nc2-c2ccc(OC)cc2)cc1` [Example 6] are 32% and 48 mg/kg.
Take `COc1ccc(-c2nc(SC(F)(F)F)ncc2-c2ccc(Cl)cc2)cc1` [Example 7]: in assay [1], the “AA % Reduction @ 27 mg/kg” value amounted to 0%. In addition, the ED50 in the assay on phenylquinone writhing stood at 49 mg/kg.
As to `Fc1ccc(-c2cnc(SC(F)(F)F)nc2-c2ccc(F)cc2)cc1` [Example 2, 2-Trifluoromethylthio-4,5-bis(4-fluorophenyl)-pyrimidine], the “AA % Reduction @ 27 mg/kg” value in assay [1] stood at 37%. The ED50 with phenylquinone writhing was > 108 mg/kg.
With `Fc1ccc(-c2cnc(SC(F)(F)C(F)F)nc2-c2ccc(F)cc2)cc1` [Example 4], in assay [1], the “AA % Reduction @ 27 mg/kg” value is given as 0%. In addition, the 50% effective dose (ED50) in the assay on phenylquinone writhing came to 45 mg/kg.
As to `COc1ccc(-c2cnc(SC)nc2-c2ccc(OC)cc2)cc1` [Example 9], the “AA % Reduction @ 27 mg/kg” value in assay [1] is 16%. The ED50 with phenylquinone writhing was 108 mg/kg.
